Structures can show the parent of a compound that is named as a salt.
Target: T1, human μ (mu, MOP) receptor (Homo sapiens, UniProt P35372)
T1 construct: expressed in transfected cells; host or cells: CHO cells
Test: cAMP assay in CHO cells expressing human mu receptor, agonist assay
Format: cell-based

T1 sequence (P35372 whole entry): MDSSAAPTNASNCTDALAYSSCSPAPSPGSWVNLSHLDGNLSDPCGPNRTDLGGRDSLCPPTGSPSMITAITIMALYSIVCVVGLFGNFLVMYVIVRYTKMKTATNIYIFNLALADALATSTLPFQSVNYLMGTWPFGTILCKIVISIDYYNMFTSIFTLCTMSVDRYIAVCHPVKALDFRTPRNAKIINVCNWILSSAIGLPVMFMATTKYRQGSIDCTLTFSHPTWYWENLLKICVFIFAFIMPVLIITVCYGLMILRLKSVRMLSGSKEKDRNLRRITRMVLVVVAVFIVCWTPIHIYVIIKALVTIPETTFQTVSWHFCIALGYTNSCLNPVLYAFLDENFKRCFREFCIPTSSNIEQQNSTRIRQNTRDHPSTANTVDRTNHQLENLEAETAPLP

Question: `C[N@@+]1(CC2CC2)CC[C@]23c4c5ccc(O)c4OC2C(=O)CCC3(O)C1C5` (stereo partly drawn) [S-MNTX, (S)-N-(cyclopropylmethyl)-noroxymorphone methyl salt] was tested. Which EC50 (CHO cells, human recombinant mu receptor, 10 uM forskolin, 100 uM IBMX, read-out: EC50 (agonist response, inhibition of forskolin-induced cAMP)) did it give?
Answer: The EC50 was 600 nM.

Question: And the “nature of the agonist response” value (cAMP agonist assay)?
Answer: The value was “complete (not partial)”.

Question: What about the “cAMP agonist assay value (Table IX.1)” value (log{M} conc −4.0) of the same compound?
Answer: Its value is 3.

Question: And the “cAMP agonist assay value (Table IX.1)” value (log{M} conc −4.5)?
Answer: The value was −3.

Question: What about the “cAMP agonist assay value (Table IX.1)” value (log{M} conc −5.0) of the same compound?
Answer: Its value is 4.

Question: And the “cAMP agonist assay value (Table IX.1)” value (log{M} conc −5.5)?
Answer: The value was 11.

Question: What about the “cAMP agonist assay value (Table IX.1)” value (log{M} conc −6.0) of the same compound?
Answer: The value was 32.

Question: What about the “cAMP agonist assay value (Table IX.1)” value (log{M} conc −6.5) of the same compound?
Answer: The value was 66.

Question: What about the “cAMP agonist assay value (Table IX.1)” value (log{M} conc −7.0) of the same compound?
Answer: The value was 70.

Question: And the “cAMP agonist assay value (Table IX.1)” value (log{M} conc −7.5)?
Answer: The value was 79.

Question: What about the “cAMP agonist assay value (Table IX.1)” value (log{M} conc −8.0) of the same compound?
Answer: Its value is 104.

Question: And the “cAMP agonist assay value (Table IX.1)” value (log{M} conc −9.0)?
Answer: The value was 86.

Source: patent US7563899B2, “(S)-N-methylnaltrexone” (Progenics Pharmaceuticals, Inc., priority 2005, dated 2009)
